pEC50: −log10 of the molar value. Entries after “also recorded” stand apart in the source; their conditions may differ. Like-named read-outs stand apart in the source and are kept apart here. No end group written: not given here.
Tests used:
[1] = tested on: intact pituitaries (GnRH1-induced CART secretion); test: inhibition of GnRH1-induced CART secretion in intact pituitaries, Western blot; format: cell-based, chicken; settings: GnRH1 5 nM, 4 h, N = 3
Experimental: (§1) As described in our recent study ([Huang et al., 2014]), the intact anterior pituitaries collected from 1-week-old male chicks were washed with PBS and placed on a 48-well plate (NUNC) supplemented with 400 μl serum-free Medium 199 (Invitrogen). After 1-h incubation at 37°C, the medium was replaced by 300 μl serum-free Medium 199 containing different concentrations of chicken GnRH1 or GnRH2 (0.1–100 nM) and incubated for 4 h.
One representative set of Western blotting is shown at the bottom.

[2] = tested on: cultured chick pituitary cells (GnRH1-induced CART mRNA); format: cell-based, chicken; settings: GnRH1 10 nM, 24 h, N = 4
Experimental: (§2) As described in our recent studies ([Huang et al., 2014]; [Mo et al., 2015]), anterior pituitaries collected from 1-week-old chicks were sliced and digested by 0.25% trypsin at 37°C for 20 min. The dispersed pituitary cells were cultured at a density of 5 × 10^5 cells/well in Medium 199 supplemented with 15% fetal bovine serum in a Corning Cell BIND 48-well plates (Corning, Tewksbury, MA) at 37°C with 5% CO2. After 24-h culture, the medium was replaced with serum-free M199 medium and the cells were treated with chicken GnRH1/GnRH2 for the duration (12–48 h) or with increasing doses (0.1–100 nM) of each peptide. The total RNA was then extracted from cultured pituitary cells and the expression of CART and β-actin assayed by qPCR.
“ND” indicates no statistical difference between the two groups. Each data point represents mean ± SEM of four replicates (N = 4). ^**p < 0.01 vs. control; ^#p < 0.01 vs. GnRH1 treatment (in the absence of drug). […] Total ERK2 in cell lysates was also examined and used as internal controls. Note: only a single band for pERK2 or total ERK2 (42 kDa) was detected in cell lysate, because ERK1 gene is lost in chicken genome ([Gerilechaogetu et al., 2009]). The representative sets of independent experimental duplicates are shown here.
“ND” indicates no statistical difference between the two groups. Each data point represents mean ± SEM of four replicates (N = 4). ^**p < 0.01 vs. control. […] The β-actin in cell lysates were also examined and used as internal controls. The representative sets of independent experimental duplicates are shown here.

[3] = tested on: cultured chick pituitary cells (CART mRNA); test: CART mRNA expression in cultured chick pituitary cells, qPCR; format: cell-based, chicken; settings: N = 4
Text: Chicken anterior pituitaries were collected either for cell culture, or for total RNA extraction. Total RNA was extracted from chicken tissues or cultured pituitary cells using RNAzol (Molecular Research Center, Cincinnati, OH) and reversely transcribed using M-MLV reverse transcriptase (TaKaRa). Reverse transcription (RT) samples were then used for quantitative real-time PCR (qPCR) assays to investigate the mRNA expression of target genes, as described in our recent studies ([Cai et al., 2015]; [Mo et al., 2015]).
as §2
The data were analyzed by the Student’s t-test (between two groups) or by one-way ANOVA followed by the Dunnett test in GraphPad Prism 5 (GraphPad Software, San Diego, CA). To validate our results, all experiments were repeated at least three times.
The mRNA levels of CART were normalized by β-actin and expressed as the percentage of respective controls. Each value represents the mean ± SEM of four replicates (N = 4). ^*p < 0.05, ^**p < 0.01 vs. respective control. (E) RT-PCR detection of GnRHR2 expression in cultured chick pituitary cells (three replicates). RT was performed in the presence (+) or absence (−) of reverse transcriptase. Parallel PCR of β-actin was performed to serve as an internal control.

chicken GnRHR1 [4] = test: pGL3-NFAT-RE-luciferase reporter, calcium signaling pathway, CHO cells expressing chicken GnRHR1; format: cell-based; settings: four replicates
Text: (§3) Based on the reported cDNA sequences of chicken GnRHR1 and GnRHR2 (accession nos.: NM_204653; NM_001012609) ([Sun et al., 2001]; [Shimizu and Bedecarrats, 2006]), gene-specific primers were used to amplify the open reading frame from adult chicken anterior pituitaries using high-fidelity Taq DNA polymerase (TOYOBO, Japan). The amplified PCR products were cloned into the pcDNA3.1 (+) expression vector (Invitrogen) and sequenced. According to our previously established methods, the signaling property of each receptor was examined in Chinese hamster ovary (CHO) cells using pGL3-NFAT-RE-luciferase ([Wang et al., 2012]), pGL4-SRE-luciferase ([Mo et al., 2015]), and pGL3-CRE-luciferase reporter systems ([Wang et al., 2007]).
(§4) Although two GnRH receptors (GnRHR1 and GnRHR2) have been identified in chickens ([Sun et al., 2001]; [Shimizu and Bedecarrats, 2006]; [Joseph et al., 2009]), their downstream signaling pathways have not been fully characterized.
(§5) Figure 5 Activation of chicken GnRHR1 or GnRHR2 expressed in CHO cells by chicken GnRH1 or GnRH2, monitored by pGL3-NFAT-RE-luciferase (A,D), pGL4-SRE-luciferase (B,E), and pGL3-CRE-luciferease (C,F) reporter systems. […] Each data point represents mean ± SEM of four replicates (N = 4).

chicken GnRHR2 [5] = test: pGL3-NFAT-RE-luciferase reporter, calcium signaling pathway, CHO cells expressing chicken GnRHR2; format: cell-based; settings: four replicates
Text: as §3, §4, §5

chicken GnRHR1 [6] = test: pGL4-SRE-luciferase reporter, MAPK/ERK signaling pathway, CHO cells expressing chicken GnRHR1; format: cell-based; settings: four replicates
Text: as §3, §4, §5

chicken GnRHR2 [7] = test: pGL4-SRE-luciferase reporter, MAPK/ERK signaling pathway, CHO cells expressing chicken GnRHR2; format: cell-based; settings: four replicates
Text: as §3, §4, §5

chicken GnRHR1 [8] = test: pGL3-CRE-luciferase reporter, cAMP/PKA signaling pathway, CHO cells expressing chicken GnRHR1; format: cell-based; settings: four replicates
Text: as §3, §4, §5

chicken GnRHR2 [9] = test: pGL3-CRE-luciferase reporter, cAMP/PKA signaling pathway, CHO cells expressing chicken GnRHR2; format: cell-based; settings: four replicates
Text: as §3, §4, §5

chicken GnRHR1 [10] = test: three cell-based luciferase reporter assays, GnRHR1 (qualitative); settings: GnRHR1, CHO cells, calcium, MAPK/ERK and cAMP/PKA reporters
Text: as §3, §4, §5

chicken GnRHR2 [11] = test: three cell-based luciferase reporter assays, GnRHR2 (qualitative)
Text: as §3, §4, §5

[12] = tested on: intact anterior pituitaries (CART secretion); test: CART peptide secretion from intact anterior pituitaries incubated in vitro, Western blot; format: cell-based, chicken; settings: 4 h, intact chick pituitaries, N = 3
Experimental: as §1, with “h. […] Parallel blotting of β-actin and CART in pituitary tissue lysates was also conducted.” for “h.”
The intracellular CART (iCART) and β-actin levels in the pituitary tissue lysate were also examined in parallel. […] Each data point represents mean ± SEM of three replicates (N = 3). ^*p < 0.05; ^**p < 0.01 vs. respective control. […] One representative set of Western blot is shown at the top of each graph.

NCCOB(c1ccccc1)c1ccccc1 [2-APB, 2-aminoethoxydiphenyl borate]
effect on GnRH1-induced CART secretion ([1]; 2-APB 100 μM): significantly inhibited

CN([C@@H](Cc1ccc(OS(=O)(=O)c2cccc3cnccc23)cc1)C(=O)N1CCN(c2ccccc2)CC1)S(=O)(=O)c1cccc2cnccc12 [KN62]
effect on GnRH1-induced CART mRNA expression ([2]; KN62 5 μM): could inhibit GnRH1-induced CART mRNA expression

Cl.c1ccc(C2CCCC2NC2=NCCCCCCCCCCC2)cc1 (stereo not drawn) [MDL12330A]
effect on GnRH1-induced CART mRNA expression ([2]; MDL12330A 20 μM): could abolish GnRH1-induced CART expression

COc1cccc(-c2cc(=O)c3ccccc3o2)c1N [PD98059]
effect on GnRH1-induced CART mRNA expression ([2]; PD98059 100 μM): could inhibit GnRH1-induced CART mRNA expression

COc1ccc2c(c1)CC[C@@H]1[C@@H]2CC[C@]2(C)[C@@H](NCCCCCCN3C(=O)C=CC3=O)CC[C@@H]12 [U73122]
effect on GnRH1-induced CART secretion ([1]; U73122 20 μM): significantly inhibited
effect on GnRH1-induced CART mRNA expression ([2]; U73122 20 μM): could inhibit GnRH1-induced CART mRNA expression

Clc1ccc(C(c2ccc(Cl)cc2)n2cc[n+](CC(OCc3ccc(Cl)cc3Cl)c3ccc(Cl)cc3Cl)c2)cc1 (stereo not drawn) [calmidazolium]
effect on GnRH1-induced CART mRNA expression ([2]; calmidazolium 1 μM): could inhibit GnRH1-induced CART mRNA expression

COc1c(C[C@@H](C)OC(=O)Oc2ccc(O)cc2)c2c3c(C[C@@H](C)OC(=O)c4ccccc4)c(OC)c(=O)c4c(O)cc(OC)c(c5c(OC)cc(O)c(c1=O)c52)c43 [calphostin C]
effect on GnRH1-induced CART mRNA expression ([2]; calphostin C 200 nM): could inhibit GnRH1-induced CART mRNA expression

C=C[C@@]1(C)CC(=O)[C@]2(O)[C@@]3(C)[C@@H](O)CCC(C)(C)[C@@H]3[C@H](O)[C@H](OC(C)=O)[C@@]2(C)O1 [forskolin, reference compound]
effect on CART mRNA expression ([3]; forskolin 2 μM, 24 h): could mimic GnRH1 action on CART expression

COC(=O)C1=C(C)NC(C)=C(C(=O)OC)C1c1ccccc1[N+](=O)[O-] [nifedipine]
effect on GnRH1-induced CART secretion ([1]; nifedipine 5 μM): significantly inhibited
effect on GnRH1-induced CART mRNA expression ([2]; nifedipine 5 μM): could inhibit GnRH1-induced CART mRNA expression

C/C=C(/C)C(=O)O[C@H]1C(C)=C2[C@H]([C@@H]1OC(=O)CCCCCCC)[C@@](C)(OC(C)=O)C[C@H](OC(=O)CCC)[C@@]1(O)[C@H]2OC(=O)[C@@]1(C)O [thapsigargin]
effect on GnRH1-induced CART mRNA expression ([2]; thapsigargin 100 nM): could inhibit GnRH1-induced CART mRNA expression

GnRH2: chicken gonadotropin-releasing hormone 2, synthesized using solid-phase Fmoc chemistry (QHWSHGWYPG; not fully specified; ends and bridges not checked; UniProt P68072 1-10, looked up)
pEC50 (chicken GnRHR1 [4]): 9.41
pEC50 (chicken GnRHR2 [5]): 9.59
pEC50 (chicken GnRHR1 [6]): 8.51
pEC50 (chicken GnRHR2 [7]): 8.55
pEC50 (chicken GnRHR1 [8]): 9.16
pEC50 (chicken GnRHR2 [9]): 9.57
activation of GnRHR1 (luciferase activity) (chicken GnRHR1 [10]): stimulate the luciferase activities dose-dependently; also recorded: potently activated by GnRH2
relative potency at GnRHR2 (chicken GnRHR2 [11]; GnRH2 compared with GnRH1, GnRHR2, CHO cells): slightly more potent than GnRH1
activation of GnRHR2 (luciferase activity) (chicken GnRHR2 [11]; GnRHR2, CHO cells, calcium, MAPK/ERK and cAMP/PKA reporters): stimulate the luciferase activities dose-dependently; also recorded: potently activated by both GnRH1 and GnRH2
secretion of mature CART peptide ([12]; 0–100 nM): potently stimulated the secretion of mature CART peptide
minimal effective concentration, CART secretion [12]: 1 nM
effect on CART mRNA expression, time and dose dependence ([3]; 10 nM time course or 0–100 nM for 48 h, qPCR): induce CART expression in time- and dose-dependent manners
